# Data from ChEMBL document CHEMBL1158262, “Novel beta-methoxyacrylates of the 9-methoxystrobilurin and oudesmansin classes produced by the basidiomycete Favolaschia pustulosa” (J Nat Prod, 1996).
# The source made the active and inactive calls. The rule behind the calls is not given here.
# Assays:
# [1] = tested on: JIYOYE; test: Cytotoxicity against human Jijoye cells after 2 days by XTT assay; type: functional, cell-based
# [2] = tested on: Bacillus subtilis; test: Antibacterial activity against Bacillus subtilis after 18 hrs by serial dilution method; type: functional
# [3] = tested on: Candida albicans; test: Antifungal activity against Candida albicans after 18 hrs by serial dilution method; type: functional
# [4] = tested on: JIYOYE; test: Cytotoxicity against human Jijoye cells after 5 days by XTT assay; type: functional, cell-based; details: 120 h
smiles,measurement,setting,value
C=CC(C)(C)OC(C)(C)C1COc2ccc(/C=C/C(OC)=C(C)\C(=C/OC)C(=O)OC)cc2O1 (stereo not given),Activity,[1],inactive
same,MIC,[2],0.9 µM
same,MIC,[3],6 µM
same,IC50,[4],1.8 nM
same,CC50,[4]; read-out: LC50 (the source's name),1.8 nM
